Assay results from ChEMBL document CHEMBL1131087, “New cyclooxygenase-2/5-lipoxygenase inhibitors. 3. 7-tert-butyl-2, 3-dihydro-3,3-dimethylbenzofuran derivatives as gastrointestinal safe antiinflammatory and analgesic agents: variations at the 5 position” (J Med Chem, 1998).
The source made the active and inactive calls. The calls are words filed in the database; no cut-off is given here.

What was measured:
[1] = test system: Rattus norvegicus; assay: Inhibition of paw swelling relative to the tebufelone in rat. Value was reported as Carrageenan paw edema index; type: functional
[2] = biological target: T1, Polyunsaturated fatty acid 5-lipoxygenase (Homo sapiens, UniProt P09917); assay: Inhibition of 5-Lipoxygenase (5-LOX)
T1 sequence (P09917 whole entry): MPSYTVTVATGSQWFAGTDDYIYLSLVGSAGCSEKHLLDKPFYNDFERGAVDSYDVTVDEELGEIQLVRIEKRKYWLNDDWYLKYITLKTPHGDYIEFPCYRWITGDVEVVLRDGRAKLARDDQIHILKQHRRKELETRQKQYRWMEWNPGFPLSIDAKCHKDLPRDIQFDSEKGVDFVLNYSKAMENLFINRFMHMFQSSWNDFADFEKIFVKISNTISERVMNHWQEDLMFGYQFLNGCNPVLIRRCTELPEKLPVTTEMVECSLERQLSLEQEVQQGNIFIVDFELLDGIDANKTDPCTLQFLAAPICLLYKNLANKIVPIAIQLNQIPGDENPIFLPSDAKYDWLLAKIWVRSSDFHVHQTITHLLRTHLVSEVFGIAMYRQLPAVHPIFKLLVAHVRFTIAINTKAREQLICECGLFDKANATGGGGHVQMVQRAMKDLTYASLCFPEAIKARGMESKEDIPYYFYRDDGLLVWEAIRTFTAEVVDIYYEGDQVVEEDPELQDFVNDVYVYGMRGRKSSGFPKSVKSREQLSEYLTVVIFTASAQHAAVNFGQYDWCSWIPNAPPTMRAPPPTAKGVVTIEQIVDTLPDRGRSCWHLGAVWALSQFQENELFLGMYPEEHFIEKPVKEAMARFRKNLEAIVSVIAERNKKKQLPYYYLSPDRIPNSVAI

[3] = biological target: T2, Prostaglandin G/H synthase 2 (Homo sapiens, UniProt P35354)
T2 sequence (P35354 whole entry): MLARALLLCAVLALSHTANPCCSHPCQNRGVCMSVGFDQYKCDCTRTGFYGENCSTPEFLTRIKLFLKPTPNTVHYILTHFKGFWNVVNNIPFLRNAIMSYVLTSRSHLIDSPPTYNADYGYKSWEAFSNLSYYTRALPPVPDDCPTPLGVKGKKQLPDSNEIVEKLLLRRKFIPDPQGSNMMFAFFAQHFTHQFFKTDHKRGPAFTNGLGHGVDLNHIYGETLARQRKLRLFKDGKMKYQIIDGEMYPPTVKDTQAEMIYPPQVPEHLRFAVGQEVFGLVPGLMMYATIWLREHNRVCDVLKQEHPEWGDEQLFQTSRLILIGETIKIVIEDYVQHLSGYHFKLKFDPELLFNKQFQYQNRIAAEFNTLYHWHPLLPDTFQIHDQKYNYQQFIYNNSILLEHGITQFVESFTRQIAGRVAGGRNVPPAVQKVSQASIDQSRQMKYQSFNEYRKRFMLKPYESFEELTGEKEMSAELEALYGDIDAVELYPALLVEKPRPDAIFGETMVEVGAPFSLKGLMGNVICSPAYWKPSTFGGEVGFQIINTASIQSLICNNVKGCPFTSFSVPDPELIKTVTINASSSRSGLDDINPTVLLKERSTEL
Description: Inhibitory activity against prostaglandin G/H synthase 2 (COX-2)

[4] = biological target: Prostaglandin G/H synthase 1 (Homo sapiens, UniProt P23219)
Sequence of Prostaglandin G/H synthase 1 (P23219 whole entry): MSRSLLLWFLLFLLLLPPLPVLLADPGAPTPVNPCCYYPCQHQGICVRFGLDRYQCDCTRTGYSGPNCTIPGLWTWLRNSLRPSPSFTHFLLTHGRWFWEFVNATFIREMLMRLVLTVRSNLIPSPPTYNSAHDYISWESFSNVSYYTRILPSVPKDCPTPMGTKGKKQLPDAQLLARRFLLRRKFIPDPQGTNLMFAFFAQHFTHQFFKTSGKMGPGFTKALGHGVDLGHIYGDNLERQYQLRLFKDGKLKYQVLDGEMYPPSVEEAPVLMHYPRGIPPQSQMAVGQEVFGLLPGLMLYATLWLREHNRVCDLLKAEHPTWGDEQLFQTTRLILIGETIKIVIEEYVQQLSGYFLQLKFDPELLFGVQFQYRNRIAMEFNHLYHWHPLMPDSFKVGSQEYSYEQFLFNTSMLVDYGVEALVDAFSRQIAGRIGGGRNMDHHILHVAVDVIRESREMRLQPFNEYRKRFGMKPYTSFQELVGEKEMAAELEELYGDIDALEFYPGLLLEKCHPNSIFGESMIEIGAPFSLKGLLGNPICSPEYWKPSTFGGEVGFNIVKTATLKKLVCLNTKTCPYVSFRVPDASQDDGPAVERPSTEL
Description: Inhibitory activity against prostaglandin G/H synthase 1 (COX-1)

[5] = organism: Rattus norvegicus; assay: Analgesic activity in phenylquinone-induced abdominal constriction assay (PAC); type: functional, Abdomen; parameters: concentration or dose not given beside the values
[6] = test system: Rattus norvegicus; assay: Comparative activity versus Dihydrodimethylbenzofurans in the CPE (Carrageenan paw edema) assay; (-) indicates the compound is inactive; type: functional, organism-based
[7] = organism: Rattus norvegicus; assay: Compound was tested for its analgesic activity in phenylquinone-induced abdominal constriction assay(PAC); type: functional; details: Abdomen
[8] = test system: Rattus norvegicus; assay: Compound was tested at a dose of 50 mg/kg for its antiinflammatory activity in carrageenan paw edema (CPE) assay
[9] = Comparative activity versus Dihydrodimethylbenzofurans in the CPE (Carrageenan paw edema) assay; -, inactive; details: Rattus norvegicus
[10] = organism: Rattus norvegicus; assay: Comparative activity versus Dihydrodimethylbenzofurans in the CPE assay; -, indicates inactive; type: functional, organism-based
[11] = test system: Rattus norvegicus; assay: Analgesic activity (50 mg/kg, sc)in phenylquinone-induced abdominal constriction assay(PAC); type: functional, Abdomen
[12] = test system: Rattus norvegicus; assay: Comparative activity versus Dihydrodimethylbenzofurans in the CPE (Carrageenan paw edema) assay; -, inactive; type: functional, organism-based

| Structure (SMILES) | CPE index [1] | IC50 [2] [nM] | IC50 [3] [nM] | IC50 [4] [nM] | Inhibition [5] [%] | also measured |
| --- | --- | --- | --- | --- | --- | --- |
| CC(C)(C)c1cc(C(=O)NC2CC2)cc2c1OCC2(C)C | 0.68 | > 50000 | 550 | 290 | 20 | – |
| CCCN(C(=O)c1cc(C(C)(C)C)c2c(c1)C(C)(C)CO2)C1CC1 | 1.41 | – | 4000 | 4500 | – | – |
| CC(C)(C)c1cc(-c2cn3c(n2)S(=O)(=O)C=C3)cc(C(C)(C)C)c1O | – | – | – | – | – | Activity [6]: inactive |
| CC(C)(C)c1cc(Nc2ccccc2C(=O)O)cc2c1OCC2(C)C | 0.78 | – | 4000 | 2500 | – | – |
| C#CCCCC(=O)c1cc(C(C)(C)C)c(O)c(C(C)(C)C)c1 [TEBUFELONE] | – | – | – | – | – | ED50 [7]: 3.7 mg/kg; inhibition in vivo at 50 mg/kg [8]: 51.1% |
| CCCCNC(=O)c1cc(C(C)(C)C)c2c(c1)C(C)(C)CO2 | 0.46 | – | 220 | 2500 | – | – |
| CC(C)(C)c1cc(-c2cn3ccsc3n2)cc2c1OCC2(C)C | 0.81 | 10000 | 15 | 75 | 68 | – |
| CC(C)(C)c1cc(/C=C\c2ccccn2)cc2c1OCC2(C)C | 0.5 | – | – | – | – | Activity [6]: inactive |
| Cc1nc(-c2cc(C(C)(C)C)c(O)c(C(C)(C)C)c2)no1 | – | – | – | – | – | Activity [6]: inactive |
| CC(C)(C)c1cc(C(N)=O)cc2c1OCC2(C)C | 0.07 | – | – | – | – | Activity [9]: inactive |
| CCN(C)C(=O)c1cc(C(C)(C)C)c2c(c1)C(C)(C)CO2 | 0.86 | 22000 | 4500 | 2500 | – | ED50 [7]: 19 mg/kg |
| CC(C)(C)c1cc(C(N)=O)cc(C(C)(C)C)c1O | – | – | – | – | – | Activity [6]: inactive |
| CN(C(=O)c1cc(C(C)(C)C)c2c(c1)C(C)(C)CO2)C1CC1 | 1.82 | 12000 | 1000 | 5000 | – | ED50 [7]: 10 mg/kg |
| Cc1cc(/C=C\c2cc(C(C)(C)C)c3c(c2)C(C)(C)CO3)on1 | 0 | – | – | – | – | Activity [6]: inactive |
| CC(C)(C)c1cc(/C=C2/SC(N)=NC2=O)cc2c1OCC2(C)C | 0.07 | – | 3000 | 5000 | – | Activity [6]: inactive |
| CC(C)(C)c1cc(C(=O)c2cccs2)cc2c1OCC2(C)C | 0.58 | 10000 | 38 | 45 | 34 | – |
| CC(C)(C)c1cc(/C=C\c2cccs2)cc2c1OCC2(C)C | 0.77 | 6000 | 35 | 20 | 13 | – |

| Structure (SMILES) | CPE index [1] | IC50 [2] [nM] | IC50 [3] [nM] | IC50 [4] [nM] | Inhibition [5] [%] | also measured |
| --- | --- | --- | --- | --- | --- | --- |
| CC(C)(C)c1cc(-c2csc(N=C(N)N)n2)cc2c1OCC2(C)C | 1.38 | – | 9000 | 15000 | 77 | – |
| Cn1cccc1C(=O)c1cc(C(C)(C)C)c2c(c1)C(C)(C)CO2 | 1.24 | – | 45 | 35 | 57 | – |
| CC1(C)CC(c2cc(C(C)(C)C)c3c(c2)C(C)(C)CO3)=NO1 | 0.56 | – | 200 | 70 | 80 | – |
| CC(=O)Nc1cc(C(C)(C)C)c2c(c1)C(C)(C)CO2 | 0.66 | – | 3500 | 3500 | 22 | – |
| CC(=O)Nc1cc(C(C)(C)C)c(O)c(C(C)(C)C)c1 | – | – | – | – | – | Activity [6]: inactive |
| COCCNC(=O)c1cc(C(C)(C)C)c2c(c1)C(C)(C)CO2 | 1.47 | 50000 | 30 | 1000 | 84 | – |
| CC(C)(C)c1cc(-c2cn3c(n2)S(=O)(=O)C=C3)cc2c1OCC2(C)C | 0.19 | – | – | – | – | Activity [10]: inactive |
| CCNC(=O)c1cc(C(C)(C)C)c2c(c1)C(C)(C)CO2 | 0.88 | – | 6000 | 20000 | – | Inhibition [11]: 56% |
| COc1ccc2cc([C@H](C)C(=O)O)ccc2c1 [NAPROXEN] | 1.06 | – | – | – | – | ED50 [7]: 1.3 mg/kg; Inhibition [11]: 54% |
| CCCCCNC(=O)c1cc(C(C)(C)C)c2c(c1)C(C)(C)CO2 | 0.16 | – | 250 | 2000 | – | – |
| CC(C)(C)c1cc(C=C2CCOC2=O)cc2c1OCC2(C)C | 0.93 | 4000 | 3.5 | 45 | – | – |
| CCCNC(=O)c1cc(C(C)(C)C)c2c(c1)C(C)(C)CO2 | 1.17 | > 50000 | 950 | 550 | 63 | – |
| CC(C)(C)c1cc(-c2cccs2)cc2c1OCC2(C)C | 0.92 | 9000 | 70 | 200 | 52 | – |
| CN(C)C(=O)c1cc(C(C)(C)C)c2c(c1)C(C)(C)CO2 | 0.36 | – | – | – | – | Activity [12]: inactive |
| CC(C)(C)c1cc(C(=O)O)cc(C(C)(C)C)c1O | – | – | – | – | – | Activity [6]: inactive |
| CC(C)(C)c1cc(C(=N)N2CCCC2)cc2c1OCC2(C)C | 0.8 | 30000 | > 100000 | > 100000 | 0 | – |
